Reference: PMC8300687, “A Fine-Tuned Lipophilicity/Hydrophilicity Ratio Governs Antibacterial Potency and Selectivity of Bifurcated Halogen Bond-Forming NBTIs” (Antibiotics, 2021)
In brackets after ≈: the same amount, converted by molar mass. Where two headings read alike, the source gives them in different places.

Key:
[1] = biological target: T1, S. aureus DNA gyrase (Staphylococcus aureus, UniProt P20831); assay: biochemical; assay type: biochemical; details: for LE DNA Gyrase S. aureus: LE = (1.37/HA) × pIC50; for IC50: fluorescence plate supercoiling assay, mean of two to four measurements
T1 construct: purchased Inspiralis (Norwich, UK)
T1 sequence (P20831 whole entry): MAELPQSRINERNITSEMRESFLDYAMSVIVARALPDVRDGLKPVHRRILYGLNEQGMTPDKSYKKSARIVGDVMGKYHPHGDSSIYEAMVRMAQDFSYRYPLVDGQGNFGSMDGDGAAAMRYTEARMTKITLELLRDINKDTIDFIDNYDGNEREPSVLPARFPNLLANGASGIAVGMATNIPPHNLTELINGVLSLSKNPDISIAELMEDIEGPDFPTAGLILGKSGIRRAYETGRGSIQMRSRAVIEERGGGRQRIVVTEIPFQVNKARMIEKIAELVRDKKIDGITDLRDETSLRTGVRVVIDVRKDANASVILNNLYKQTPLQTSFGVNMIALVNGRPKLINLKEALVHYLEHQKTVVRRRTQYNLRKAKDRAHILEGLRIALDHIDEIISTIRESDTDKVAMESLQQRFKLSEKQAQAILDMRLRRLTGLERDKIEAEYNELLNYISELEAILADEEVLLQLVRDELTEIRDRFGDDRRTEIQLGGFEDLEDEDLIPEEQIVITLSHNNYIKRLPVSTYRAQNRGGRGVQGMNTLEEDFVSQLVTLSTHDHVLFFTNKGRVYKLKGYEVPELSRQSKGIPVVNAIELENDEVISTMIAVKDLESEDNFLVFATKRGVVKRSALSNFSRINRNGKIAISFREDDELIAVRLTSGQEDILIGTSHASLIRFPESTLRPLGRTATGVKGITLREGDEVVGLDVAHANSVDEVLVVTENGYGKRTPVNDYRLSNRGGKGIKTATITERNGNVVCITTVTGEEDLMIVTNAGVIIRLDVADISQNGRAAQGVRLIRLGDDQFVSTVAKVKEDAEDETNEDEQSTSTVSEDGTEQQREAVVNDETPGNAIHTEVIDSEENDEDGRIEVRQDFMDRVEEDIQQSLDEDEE
T1 sequence (P0A0K8 whole entry partner): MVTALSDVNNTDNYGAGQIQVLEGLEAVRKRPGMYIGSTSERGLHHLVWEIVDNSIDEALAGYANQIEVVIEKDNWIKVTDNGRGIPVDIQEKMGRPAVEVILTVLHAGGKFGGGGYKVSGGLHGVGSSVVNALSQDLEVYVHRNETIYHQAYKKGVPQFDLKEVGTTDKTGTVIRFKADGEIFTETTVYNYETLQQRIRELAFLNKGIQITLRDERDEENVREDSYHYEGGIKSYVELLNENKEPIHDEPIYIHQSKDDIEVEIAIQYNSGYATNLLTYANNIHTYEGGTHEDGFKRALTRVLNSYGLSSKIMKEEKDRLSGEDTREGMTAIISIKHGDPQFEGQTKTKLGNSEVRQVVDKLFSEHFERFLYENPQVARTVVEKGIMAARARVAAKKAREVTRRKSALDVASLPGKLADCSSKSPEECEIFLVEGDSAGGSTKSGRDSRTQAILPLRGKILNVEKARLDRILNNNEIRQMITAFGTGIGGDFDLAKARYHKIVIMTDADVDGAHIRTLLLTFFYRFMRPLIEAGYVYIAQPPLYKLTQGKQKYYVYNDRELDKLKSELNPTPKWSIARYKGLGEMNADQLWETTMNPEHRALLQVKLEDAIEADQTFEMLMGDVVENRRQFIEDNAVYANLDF
Procedure: (§1) A Gyrase Supercoiling High Throughput Plate assay kit, purchased from Inspiralis (Norwich. UK) was used to determine IC50 values of compounds on S. aureus and E. coli. […] Biotinylated oligonucleotide in wash buffer was immobilized onto the wells, and the excess oligonucleotide was washed off with wash buffer and ultrapure water. […] The reactions were stopped by adding the TF buffer (50 mM NaOAc (pH 4.7), 50 mM NaCl, and 50 mM MgCl2) to allow the triplex formation (biotin-oligonucleotide-plasmid) for additional 30 min. Afterward, the unbound plasmid was washed off using TF buffer, and the solution of Promega Diamond dye in T10 buffer (10 mM Tris-HCl (pH 8.0), 1 mM EDTA) was added. […] IC50 value represents the mean of two to four independent measurements.

[2] = biological target: T2, E. coli DNA gyrase (Escherichia coli, UniProt P0AES4); assay: Gyrase Supercoiling High Throughput Plate assay, E. coli; assay type: biochemical; details: for LE DNA Gyrase E. coli: LE = (1.37/HA) × pIC50
T2 construct: purchased Inspiralis (Norwich, UK)
T2 sequence (P0AES4 whole entry): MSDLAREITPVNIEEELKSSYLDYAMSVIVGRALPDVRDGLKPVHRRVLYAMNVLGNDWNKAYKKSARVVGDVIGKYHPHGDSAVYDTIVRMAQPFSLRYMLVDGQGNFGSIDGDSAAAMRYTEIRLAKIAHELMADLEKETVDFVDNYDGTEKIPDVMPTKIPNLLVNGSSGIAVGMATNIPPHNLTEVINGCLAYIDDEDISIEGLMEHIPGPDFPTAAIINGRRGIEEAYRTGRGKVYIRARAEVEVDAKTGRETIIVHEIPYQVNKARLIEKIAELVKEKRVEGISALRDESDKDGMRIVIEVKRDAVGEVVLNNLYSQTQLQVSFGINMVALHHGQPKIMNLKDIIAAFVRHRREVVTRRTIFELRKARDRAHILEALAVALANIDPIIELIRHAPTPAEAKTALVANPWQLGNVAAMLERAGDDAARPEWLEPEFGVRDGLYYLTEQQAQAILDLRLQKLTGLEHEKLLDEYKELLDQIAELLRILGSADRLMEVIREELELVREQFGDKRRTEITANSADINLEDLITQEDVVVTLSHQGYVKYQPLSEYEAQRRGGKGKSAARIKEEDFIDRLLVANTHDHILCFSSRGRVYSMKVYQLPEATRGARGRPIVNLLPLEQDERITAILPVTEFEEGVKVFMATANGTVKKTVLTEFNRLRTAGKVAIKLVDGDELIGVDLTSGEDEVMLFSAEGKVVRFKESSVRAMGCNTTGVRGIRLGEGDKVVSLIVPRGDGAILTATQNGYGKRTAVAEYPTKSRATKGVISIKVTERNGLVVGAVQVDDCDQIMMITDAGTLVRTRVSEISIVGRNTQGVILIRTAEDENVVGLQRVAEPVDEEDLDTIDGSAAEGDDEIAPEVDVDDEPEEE
Procedure: as §1

[3] = biological target: T3, S. aureus Topo IV (Staphylococcus aureus, UniProt Q2FYS4); assay: biochemical; details: mean of two to four measurements; read-out: Topoisomerase IV IC50 S. aureus
T3 construct: purchased Inspiralis (Norwich, UK)
Procedure: (§2) A Topo IV Relaxation High Throughput Plate assay kit, purchased from Inspiralis (Norwich. UK) was used to determine IC50 values of compounds on S. aureus and E. coli. […] Biotinylated oligonucleotide in wash buffer was immobilized onto the wells, and the excess oligonucleotide was washed off with wash buffer and ultrapure water. 1.5 U of S. aureus or E. coli […] enzyme was incubated together with 0.75 μg of supercoiled pNO1 plasmid as a substrate in the presence of 3 μL inhibitor solution in 10% DMSO and 0.008% Tween 20 at 37 °C for 30 min in a final reaction volume of 30 μL in dilution buffer (50 mM Tris-HCl (pH 7.5), 1 mM DTT, 1 mM EDTA, 40% (w/v) glycerol for S. aureus and 40 mM HEPES, KOH (pH 7.6), 100 mM potassium glutamate, 1 mM DTT, 1 mM EDTA, and 40% (v/v) glycerol for E. coli). The reactions were stopped by adding the TF buffer (50 mM NaOAc (pH 4.7), 50 mM NaCl, and 50 mM MgCl2) to allow the triplex formation (biotin-oligonucleotide-plasmid) for additional 30 min. Afterward, the unbound plasmid was washed off using TF buffer, and the solution of Promega Diamond dye in T10 buffer (10 mM Tris-HCl (pH 8.0), 1 mM EDTA) was added. […] IC50 value represents the mean of two to four independent measurements.

[4] = biological target: T4, E. coli Topo IV (Escherichia coli, UniProt P0AFI2); assay: Topo IV Relaxation High Throughput Plate assay, E. coli; assay type: biochemical; details: for LE Topo IV E. coli: LE = (1.37/HA) × pIC50
T4 construct: purchased Inspiralis (Norwich, UK)
T4 sequence (P0AFI2 whole entry): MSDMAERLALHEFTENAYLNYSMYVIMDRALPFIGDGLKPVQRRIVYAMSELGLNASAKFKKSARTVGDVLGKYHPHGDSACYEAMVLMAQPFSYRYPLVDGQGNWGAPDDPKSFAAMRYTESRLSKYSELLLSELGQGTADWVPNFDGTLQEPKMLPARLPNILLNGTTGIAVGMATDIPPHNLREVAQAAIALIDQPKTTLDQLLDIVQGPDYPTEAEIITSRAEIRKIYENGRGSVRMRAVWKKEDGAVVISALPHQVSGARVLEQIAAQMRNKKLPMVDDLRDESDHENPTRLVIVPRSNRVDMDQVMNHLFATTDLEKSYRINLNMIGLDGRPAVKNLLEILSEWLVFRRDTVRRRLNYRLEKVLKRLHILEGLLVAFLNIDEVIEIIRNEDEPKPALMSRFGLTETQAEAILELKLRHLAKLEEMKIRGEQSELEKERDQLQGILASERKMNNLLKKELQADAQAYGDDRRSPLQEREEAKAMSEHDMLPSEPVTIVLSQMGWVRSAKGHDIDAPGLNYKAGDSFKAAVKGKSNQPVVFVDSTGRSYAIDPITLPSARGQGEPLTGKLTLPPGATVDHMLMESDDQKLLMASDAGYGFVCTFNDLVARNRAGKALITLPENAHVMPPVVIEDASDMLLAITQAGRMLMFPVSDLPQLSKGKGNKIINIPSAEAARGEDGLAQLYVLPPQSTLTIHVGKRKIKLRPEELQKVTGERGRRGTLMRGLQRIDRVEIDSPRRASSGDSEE
T4 sequence (P20083 whole entry, further chain): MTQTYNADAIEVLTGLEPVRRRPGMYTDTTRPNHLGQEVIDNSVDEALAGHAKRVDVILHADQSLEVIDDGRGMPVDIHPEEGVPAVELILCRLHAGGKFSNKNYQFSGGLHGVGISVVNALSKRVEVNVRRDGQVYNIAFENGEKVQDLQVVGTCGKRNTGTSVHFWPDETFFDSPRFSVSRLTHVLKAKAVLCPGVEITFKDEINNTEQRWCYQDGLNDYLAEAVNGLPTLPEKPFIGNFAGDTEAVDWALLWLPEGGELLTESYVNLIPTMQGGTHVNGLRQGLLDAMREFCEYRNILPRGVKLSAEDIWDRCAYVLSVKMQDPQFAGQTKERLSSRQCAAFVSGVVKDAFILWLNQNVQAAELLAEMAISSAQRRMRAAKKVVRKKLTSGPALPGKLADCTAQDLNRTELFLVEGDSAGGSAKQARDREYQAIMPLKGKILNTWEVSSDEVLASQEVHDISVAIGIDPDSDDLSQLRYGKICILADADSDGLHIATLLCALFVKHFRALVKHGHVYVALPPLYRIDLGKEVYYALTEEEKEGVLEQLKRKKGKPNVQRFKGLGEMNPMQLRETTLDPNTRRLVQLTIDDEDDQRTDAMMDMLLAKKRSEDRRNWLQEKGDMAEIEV
Procedure: as §2

[5] = test system: E. faecalis DRK 057 (ATCC 29212); assay: MIC broth microdilution, E. faecalis; assay type: cell-based
Procedure: (§3) Antimicrobial testing was carried out by the broth microdilution method in 96-well plate format following the Clinical and Laboratory Standards Institute (CLSI) guidelines and European Committee on Antimicrobial Susceptibility Testing (EUCAST) recommendations. Bacterial suspension of specific bacterial strain equivalent to 0.5 McFarland turbidity standard was diluted with cation-adjusted Mueller Hinton broth with TES (Thermo Fisher Diagnostic, Landsmeer, The Netherlands), to obtain a final inoculum of 10^5 CFU/mL. Compounds dissolved in DMSO and inoculum were mixed together and incubated for 18–20 h at 35 °C. Suspensions of Mycobacterium sp. were prepared into a tube of Middelbrook 7H9 broth supplemented with 5% OADC (Thermo Scientific, Trek Diagnostic Systems, West Sussex, UK) and incubated for at least 10 days. After incubation the minimal inhibitory concentration (MIC) values were determined by visual inspection as the lowest dilution of compounds showing no turbidity. Tetracycline was used as a positive control on every assay plate.

[6] = test system: S. agalactiae RDK 047 (QA-990/02); assay: MIC broth microdilution, S. agalactiae; assay type: cell-based
Procedure: as §3

[7] = test system: E. coli (ATCC 25922); assay: MIC broth microdilution, E. coli ATCC 25922; assay type: cell-based
Procedure: as §3

[8] = test system: E. coli (QA-11.3); assay: MIC broth microdilution, E. coli QA-11.3; assay type: cell-based
Procedure: as §3

[9] = test system: E. coli N43 (CGSC# 5583); assay: MIC broth microdilution, E. coli N43; assay type: cell-based; details: for MIC: Escherichia coli
Procedure: as §3

[10] = test system: A. baumannii 8C6 (GES-14); assay: MIC broth microdilution, A. baumannii; assay type: cell-based
Procedure: as §3

[11] = test system: P. aeruginosa RDK 184 (DSM 939); assay: MIC broth microdilution, P. aeruginosa; assay type: cell-based
Procedure: as §3

[12] = test system: HUVEC; assay: Metabolic activity assessment (cytotoxicity), HUVEC; assay type: cell-based; details: Homo sapiens, 72 h, metabolic activity after 72 h treatment
Procedure: Cells of the HepG2 line (ATCC® HB-8065™) and HUVEC (ATCC® CRL-1730™) were cultured in Dulbecco’s Modified Eagle Medium (DMEM; Sigma-Aldrich, St. Louis, MO, USA) supplemented with 10% heat-deactivated FBS (Gibco, Grand Island, NE, USA), 2 mM L-glutamine, 100 U/mL penicillin, 100 μg/mL streptomycin (all from Sigma-Aldrich, St. Louis, MO, USA) in a humidified chamber at 37 °C and 5% CO2. The experiments were carried out on passages 7–9 for both cell lines. The tested compounds were dissolved in DMSO and further diluted in culture medium to a desired final concentration. Cells were seeded into 96-well plates at 8 × 10^4 cells/mL (100 μL/well) and incubated for 24 h to attach onto the wells. Cells were treated with 1 μM and 50 μM of each compound of interest or corresponding vehicle as control. […] The metabolic activity was assessed after 72 h treatment using the CellTiter 96 Aqueous One Solution Cell Proliferation Assay (Promega, Madison, WI, USA), in accordance with the manufacturer’s instructions. The absorbance was measured at 492 nm on an automated microplate reader BioTek Synergy HT (BioTek Instruments, Inc., Winooski, VT, USA). Data are presented as the percentage of metabolic activity of control cells stimulated with vehicle or as IC50 value (mean ± SD) from two independent experiments, each conducted in duplicate or triplicate. IC50 values were calculated by a non-linear regression model using Graph Pad Prism 7 software.

[13] = Enterococcus faecalis, ATCC29212; read-out: MIC E. faecalis DRK 057 (ATCC 29212)
[14] = Streptococcus agalactiae; read-out: MIC S. agalactiae RDK 047 (QA-990/02)
[15] = Escherichia coli, ATCC25922; E. coli ATCC 25922; read-out: E. coli MIC (converted)
[16] = Escherichia coli, ATCC25922; read-out: MIC E. coli (ATCC 25922)
[17] = Escherichia coli, 20 h; read-out: MIC E. coli (QA-11.3)
[18] = read-out: E. coli N43 MIC in molar
[19] = read-out: MIC E. coli N43 (CGSC# 5583)
[20] = Acinetobacter baumannii; read-out: MIC A. baumannii 8C6 (GES-14)
[21] = Pseudomonas aeruginosa, DSM939; read-out: MIC P. aeruginosa RDK 184 (DSM 939)
[22] = mean of two to four measurements, read-out: Topoisomerase IV IC50 E. coli
[23] = Escherichia coli, ATCC25922, 20 h; E. coli ATCC 25922; read-out: E. coli MIC (converted)

| Structure (SMILES) | LE DNA Gyrase S. aureus [1] | IC50 [2] [µM] | LE DNA Gyrase E. coli [2] | IC50 [3] [µM] | IC50 [4] [µM] | LE Topo IV E. coli [4] | MIC [5, 13] [µg/mL] | MIC [6, 14] [µg/mL] | MIC [7, 15] [µM] | MIC [7, 16] [µg/mL] | MIC [8, 17] [µg/mL] | MIC [9, 18] [µM] | MIC [9, 19] [µg/mL] | MIC [10, 20] [µg/mL] | MIC [11, 21] [µg/mL] | IC50 [4, 22] [µM] | other results |
| --- | --- | --- | --- | --- | --- | --- | --- | --- | --- | --- | --- | --- | --- | --- | --- | --- | --- |
| COc1ccc2nccc(CCN3CCC(NCc4ccccc4)CC3)c2n1 [Compound 11] | 0.29 | 40.6 ± 1.97 | 0.21 | > 100 | 2.04 ± 0.2 | 0.28 | 16 (≈ 42.5 µM) | 16 (≈ 42.5 µM) | 170 | 64 | 32 (≈ 85 µM) | 21.2 | 8 | 64 (≈ 170 µM) | > 128 | – | – |
| COc1ccc2nccc(CCN3CCC(NCc4ccc(Cl)cc4)CC3)c2n1 [Compound 13] | – | – | – | – | – | – | 1 (≈ 2.43 µM) | 1 (≈ 2.43 µM) | 9.73 | 4 | 2 (≈ 4.87 µM) | 1.22 | 0.5 | 4 (≈ 9.73 µM) | > 128 | 0.031 | – |
| COc1ccc2nccc(CCN3CCC(NCc4ccc(Br)cc4)CC3)c2n1 [Compound 14] | – | – | – | – | – | – | 1 (≈ 2.2 µM) | 0.5 (≈ 1.1 µM) | 4.39 | 2 | 1 (≈ 2.2 µM) | 0.27 | 0.125 | 1 (≈ 2.2 µM) | 128 (≈ 281 µM) | 0.042 ± 0.003 | – |
| COc1ccc2nccc(CCN3CCC(NCc4ccc(C(N)=O)cc4)CC3)c2n1 [Compound 17] | 0.25 | > 100 | – | > 100 | 1.15 ± 0.03 | 0.26 | 128 (≈ 305 µM) | > 128 | – | > 128 | 128 (≈ 305 µM) | 38.1 | 16 | 128 (≈ 305 µM) | > 128 | – | IC50 [1]: 1.82 ± 0.11 µM; MIC [7, 23]: 305 µM |
| COc1ccc2nccc(CCN3CCC(NC(=O)c4cn5cccc(C#N)c5n4)CC3)c2n1 [Compound 7, 8-Cyano-N-(1-(2-(6-methoxy-1,5-naphthyridin-4-yl)ethyl)piperidin-4-yl)imidazo[1,2-a]pyridine-2-carboxamide] | – | > 100 | – | > 100 | > 100 | – | – | – | – | – | – | 281 | > 128 | – | – | – | IC50 [1]: > 100 µM; MIC ([5]; Enterococcus faecalis, ATCC29212, read-out: MIC E. faecalis DRK 057 (ATCC 29212)): > 128 µg/mL; MIC ([6]; Streptococcus agalactiae, read-out: MIC S. agalactiae RDK 047 (QA-990/02)): > 128 µg/mL; MIC [7, 23]: 281 µM; MIC ([7]; Escherichia coli, ATCC25922, read-out: MIC E. coli (ATCC 25922)): > 128 µg/mL; MIC ([8]; Escherichia coli, 20 h, read-out: MIC E. coli (QA-11.3)): > 128 µg/mL; MIC ([10]; Acinetobacter baumannii, read-out: MIC A. baumannii 8C6 (GES-14)): > 128 µg/mL; MIC ([11]; Pseudomonas aeruginosa, DSM939, read-out: MIC P. aeruginosa RDK 184 (DSM 939)): > 128 µg/mL |
| COc1ccc2nccc(CCN3CCC(NCc4ccc(F)cc4)CC3)c2n1 [Compound 12] | 0.30 | 17 ± 1.69 | 0.23 | > 100 | 0.28 ± 0.03 | 0.31 | 8 (≈ 20.3 µM) | 8 (≈ 20.3 µM) | 81.1 | 32 | 8 (≈ 20.3 µM) | 10.1 | 4 | 32 (≈ 81.1 µM) | > 128 | – | – |
| COc1ccc2nccc(CCN3CCC(NCc4ccc(I)cc4)CC3)c2n1 [Compound 15] | – | – | – | – | – | – | 1 (≈ 1.99 µM) | 0.125 (≈ 0.249 µM) | 3.98 | 2 | 1 (≈ 1.99 µM) | 0.16 | 0.078 | 0.25 (≈ 0.498 µM) | 32 (≈ 63.7 µM) | 0.021 ± 0.001 | MIC ([7]; Escherichia coli, ATCC25922; range over E. coli strains; read-out: MIC E. coli): 0.25 to 2 µg/mL; E. coli N43 MIC in molar ([9]; E. coli CGSC# 5583, AcrA knockout strain): 0.16 µM; IC50 [12]: ~20 µM |
| COc1ccc2nccc(CCN3CCC(NCc4ccc(N(C)C)cc4)CC3)c2n1 [Compound 18] | 0.32 | 11.9 ± 0.83 | 0.22 | > 100 | > 100 | – | 1 (≈ 2.38 µM) | 0.25 (≈ 0.596 µM) | 78.5 | 32 | 8 (≈ 19.1 µM) | 2.45 | 1 | 8 (≈ 19.1 µM) | > 128 | – | – |
